Experimental data published in ChEMBL document CHEMBL1124319, “Synthesis of an analogue of tabtoxinine as a potential inhibitor of D-alanine:D-alanine ligase (ADP forming)” (J Med Chem, 1989).
Active and inactive are the calls of the source. The rule behind the calls is not given here.

What was measured:
[1] = Compound was tested for its inhibitory activity against DAla-DAla Ligase at 1 mM; No activity; set-up: species or system Enterococcus faecalis
Escherichia coli = experiment: Antibacterial activity against Escherichia coli; Inactive; format: functional, organism-based
Staphylococcus aureus = experiment: Antibacterial activity against Staphylococcus aureus; Inactive; format: functional, organism-based
[2] = Compound was tested for its inhibitory activity against DAla-DAla Ligase; set-up: species or system Enterococcus faecalis

Row | IC50 [1] | SMILES | Activity (Escherichia coli) | Activity (Staphylococcus aureus) | IC50 [2] [µM]
1 | Not Active | C[C@@H](N)[C@]1(O)CNC1=O | inactive | inactive | 
2 |  | N[C@@H]1CONC1=O [CYCLOSERINE] |  |  | 250
3 |  | CC(N)P(=O)(O)O (stereo not drawn) |  |  | 930
4 | Not Active | C[C@@H](N)[C@@]1(O)CNC1=O | inactive | inactive | 
